Results from patent US10669235B2, “Indole derivatives and their use as protein kinase inhibitors” (RESPIVERT LIMITED, priority 2016, dated 2020).
Read-outs that look alike come from different tables or passages of the source.

Columns and labels:
PDGFRβ = PDGFRβ (Homo sapiens (Human), UniProt P09619); assay: PDGF-BB induced phosphorylation of PDGFRβ in fibroblasts (MRC5, HTRF); type: cell-based; conditions: MRC5 cells, PDGFBB stimulation; read-out: PDGFBB-induced PDGFRβ phosphorylation in MRC5 cells (IC50)
MRC5 cells = assay: Cell viability assay in MRC5 cells (MTT)
PAMPA permeability assay = type: in vitro ADME
[1] = Pharmacokinetic measurements in rats (i.v., i.t., oral); type: in vivo; conditions: rat; for concentration at 0.1 h / concentration at 1.5 h / concentration at 24 h: lung; for concentration at 0.1 h: read-out: lung concentration (nM) at time 0.1 h; for concentration at 1.5 h: read-out: lung concentration (nM) at time 1.5 h; for concentration at 24 h: read-out: lung concentration (nM) at time 24 h
[2] = male, CD, other: intra-tracheal
[3] = i.t. dose 0.1 (nintedanib 0.42)
[4] = i.v. dose 0.1 (nintedanib 0.42)

Chain of PDGFRβ (P09619 33-1106): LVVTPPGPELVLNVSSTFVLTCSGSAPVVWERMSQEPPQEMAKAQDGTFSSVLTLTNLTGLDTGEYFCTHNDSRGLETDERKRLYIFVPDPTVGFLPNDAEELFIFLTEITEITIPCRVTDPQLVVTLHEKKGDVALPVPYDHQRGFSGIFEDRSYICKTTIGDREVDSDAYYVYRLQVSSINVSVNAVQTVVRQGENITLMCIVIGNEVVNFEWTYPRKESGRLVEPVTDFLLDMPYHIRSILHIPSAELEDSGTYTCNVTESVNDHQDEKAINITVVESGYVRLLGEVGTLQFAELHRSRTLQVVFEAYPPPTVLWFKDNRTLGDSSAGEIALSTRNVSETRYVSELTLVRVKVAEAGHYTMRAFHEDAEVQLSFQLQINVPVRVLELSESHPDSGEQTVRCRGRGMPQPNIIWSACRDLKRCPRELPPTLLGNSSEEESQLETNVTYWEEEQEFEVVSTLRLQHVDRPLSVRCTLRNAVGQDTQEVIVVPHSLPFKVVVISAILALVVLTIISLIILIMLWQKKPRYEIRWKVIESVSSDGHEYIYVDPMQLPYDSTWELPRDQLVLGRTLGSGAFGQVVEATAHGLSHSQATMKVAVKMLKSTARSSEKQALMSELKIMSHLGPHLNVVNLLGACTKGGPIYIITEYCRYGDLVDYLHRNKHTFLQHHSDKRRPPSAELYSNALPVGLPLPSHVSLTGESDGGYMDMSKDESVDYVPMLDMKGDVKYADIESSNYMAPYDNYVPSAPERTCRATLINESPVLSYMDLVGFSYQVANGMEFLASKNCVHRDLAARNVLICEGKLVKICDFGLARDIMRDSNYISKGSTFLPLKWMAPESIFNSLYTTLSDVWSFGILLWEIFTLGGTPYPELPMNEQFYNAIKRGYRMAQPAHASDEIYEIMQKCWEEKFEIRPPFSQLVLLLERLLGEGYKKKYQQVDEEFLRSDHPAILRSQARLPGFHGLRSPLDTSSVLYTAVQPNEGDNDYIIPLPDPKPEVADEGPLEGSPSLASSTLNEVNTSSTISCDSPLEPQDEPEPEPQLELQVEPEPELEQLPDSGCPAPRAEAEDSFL

IC50 (PDGFRβ)	Structure (SMILES)	Cell viability at 100 nM (%) (MRC5 cells)	Cell viability at 300 nM (%) (MRC5 cells)	Cell viability at 1000 nM (%) (MRC5 cells)	also measured
	COC(=O)c1cc2c(cc1C)/C(=C(/Nc1ccc(C(=O)NCC3CCN(CCO)CC3)cc1)c1ccccc1)C(=O)N2 [Example 50, (Z)-Methyl 3-(((4-(((1-(2-hydroxyethyl)piperidin-4-yl)methyl)carbamoyl)phenyl)amino)(phenyl)methylene)-5-methyl-2-oxoindoline-6-carboxylate]	116.2%	107.9%	61.0%	
6.71 nM	COC(=O)c1cc2c(cc1C)/C(=C(/Nc1ccc(C(=O)NCCN(C)CCO)cc1)c1ccccc1)C(=O)N2 [Example 51, (Z)-Methyl 3-(((4-((2-((2-hydroxyethyl)(methyl)amino)ethyl)carbamoyl)phenyl)amino)(phenyl)methylene)-5-methyl-2-oxoindoline-6-carboxylate]	113%	95.5%	83.8%	
5.49 nM	COC(=O)c1cc2c(cc1C)/C(=C(/Nc1ccc(C(=O)NCCN3CCS(=O)(=O)CC3)cc1)c1ccccc1)C(=O)N2 [Example 52, (Z)-Methyl 3-(((4-((2-(1,1-dioxidothiomorpholino)ethyl)carbamoyl)phenyl)amino)(phenyl)methylene)-5-methyl-2-oxoindoline-6-carboxylate]	81.3%	81.2%	85.9%	
6.5 nM	COC(=O)c1cc2c(cc1C)/C(=C(/Nc1ccc(C(=O)NCCN3CCNC(=O)CC3)cc1)c1ccccc1)C(=O)N2 [Example 53, (Z)-Methyl 5-methyl-2-oxo-3-(((4-((2-(5-oxo-1,4-diazepan-1-yl)ethyl)carbamoyl)phenyl)amino)(phenyl)methylene)indoline-6-carboxylate]	89.1%	92.9%	95.3%	
	COC(=O)c1ccc2c(c1)NC(=O)/C2=C(\Nc1ccc(N(C)C(=O)CN2CCN(C)CC2)cc1)c1ccccc1 [Nintedanib, reference compound]	104.6%	105.6%	92.7%	% Recovery (PAMPA permeability assay): 64.0%; recovery at 5 hr, 10 μM (PAMPA permeability assay; pH 7, PAMPA): 83.5%; concentration at 0.1 h ([1]; male, CD, iv): 2300 nM; concentration at 1.5 h ([1]; male, CD, iv): 1390 nM; concentration at 24 h ([1]; male, CD, iv): 66 nM; concentration at 0.1 h [1, 2]: 12400 nM; concentration at 1.5 h [1, 2]: 7700 nM; concentration at 24 h [1, 2]: 152 nM; MRT ([1]; male, CD, plasma, iv): 3.8 h; clearance ([1]; male, CD, plasma, iv): 124 mL/min/kg; half-life ([1]; male, CD, plasma, iv): 3.9 h; Vd ([1]; male, CD, plasma, iv, read-out: Vss): 28 L/kg; i.t. BAV (%) [1, 3]: 43%; BAL % administered dose at time 0.1 h [1, 3]: 2%; BAL % administered dose at time 1.5 h [1, 3]: 1%; BAL % administered dose at time 24 h [1, 3]: 0.1%; BAL % administered dose at time 0.1 h [1, 4]: 0.06%; BAL % administered dose at time 1.5 h [1, 4]: 0.03%; BAL % administered dose at time 24 h [1, 4]: BQL

Structure (SMILES)	IC50 (PDGFRβ)	Cell viability at 100 nM (%) (MRC5 cells)	Cell viability at 300 nM (%) (MRC5 cells)	Cell viability at 1000 nM (%) (MRC5 cells)	also measured
COC(=O)c1cc2c(cc1C)/C(=C(/Nc1ccc(C(=O)NC3CCN(CCO)CC3)cc1)c1ccccc1)C(=O)N2 [Example 49, (Z)-Methyl 3-(((4-((1-(2-hydroxyethyl)piperidin-4-yl)carbamoyl)phenyl)amino)(phenyl)methylene)-5-methyl-2-oxoindoline-6-carboxylate]	1.25 nM				
